Experiments:
[1] = target: T1, GOT1 (glutamate oxaloacetate transaminase 1, aspartate aminotransferase 1) (Homo sapiens, UniProt P17174); test: X-ray crystal structure, […] Å; assay type: binding
[2] = target: T1, GOT1 (glutamate oxaloacetate transaminase 1, aspartate aminotransferase 1); test: GLOX/HRP-coupled GOT1 enzyme assay; assay type: biochemical
[3] = target: T1, GOT1 (glutamate oxaloacetate transaminase 1, aspartate aminotransferase 1); test: GLOX/HRP-coupled enzyme kinetics; assay type: biochemical

T1 sequence (P17174 2-413): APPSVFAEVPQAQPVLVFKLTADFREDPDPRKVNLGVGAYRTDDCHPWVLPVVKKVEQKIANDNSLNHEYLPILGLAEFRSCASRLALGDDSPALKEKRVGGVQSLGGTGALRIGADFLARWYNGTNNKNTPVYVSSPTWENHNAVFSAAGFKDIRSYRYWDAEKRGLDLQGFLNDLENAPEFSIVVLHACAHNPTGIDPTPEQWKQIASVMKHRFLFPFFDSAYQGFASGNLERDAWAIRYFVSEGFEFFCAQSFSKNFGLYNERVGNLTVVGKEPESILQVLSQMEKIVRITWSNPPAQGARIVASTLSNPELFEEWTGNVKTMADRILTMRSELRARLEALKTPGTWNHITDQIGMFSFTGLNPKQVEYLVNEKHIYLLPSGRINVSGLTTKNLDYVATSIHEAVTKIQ

## Cc1ncc(COP(=O)(O)O)c(C=O)c1O [PLP]
[1]
  X-ray crystal structure, 2.10 Å: The WT-GOT1 structure is a homodimer, each of which contains PLP.

## O=C(Nc1ccccc1)N1CCN(c2cccc3[nH]ccc23)CC1 [iGOT1-01]
[2]
  IC50: 11.3 µM

## O=C(O)CCC(=O)C(=O)O [α-ketoglutarate]
[3]
  Km: ~ 0.5 mM

— publication PMC6487875 (Biochemistry, 2018)
